{"source": "patent US20070244115A1", "about": "“Amino-Halogen-Imidazopyridines as Proton Pump Inhibitors” (Alana Pharma AG, priority 2004, published 2007)"}
{"tested_on": "pentagastrin-stimulated acid secretion of the perfused rat stomach", "test": "Secretion-inhibiting action on the perfused rat stomach (pentagastrin-stimulated acid secretion)", "format": "in vivo", "conditions": "anesthetized CD rat, dose 2.2 μmol/kg i.d. (intraduodenal)", "from_the_text": "Testing of the Secretion-Inhibiting Action on the Perfused Rat Stomach\nIn Table A which follows, the influence of the compounds according to the invention on the pentagastrin-stimulated acid secretion of the perfused rat stomach after intraduodenal administration in vivo is shown.\nThe abdomen of anesthetized rats (CD rat, female, 200-250 g; 1.5 g/kg i.m. urethane) was opened after tracheotomy by a median upper abdominal incision and a PVC catheter was fixed transorally in the esophagus and another via the pylorus such that the ends of the tubes just projected into the gastric lumen. The catheter leading from the pylorus led outward into the right abdominal wall through a side opening.\nAfter thorough rinsing (about 50-100 ml), warm (37° C.) physiological NaCl solution was continuously passed through the stomach (0.5 ml/min, pH 6.8-6.9; Braun-Unita I). The pH (pH meter 632, glass electrode EA 147; φ=5 mm, Metrohm) and, by titration with a freshly prepared 0.01N NaOH solution to pH 7 (Dosimat 665 Metrohm), the secreted HCl were determined in the effluent in each case collected at an interval of 15 minutes.\nThe gastric secretion was stimulated by continuous infusion of 1 μg/kg (=1.65 ml/h) of i.v. pentagastrin (left femoral vein) about 30 min after the end of the operation (i.e. after determination of 2 preliminary fractions). The substances to be tested were administered intraduodenally in a 2.5 ml/kg liquid volume 60 min after the start of the continuous pentagastrin infusion.\nThe body temperature of the animals was kept at a constant 37.8-38° C. by infrared irradiation and heat pads (automatic, stepless control by means of a rectal temperature sensor).", "units": {"Inhibition of acid secretion (%)": "%"}}
{"smiles": "COc1ccc2nc([S@@+]([O-])Cc3nccc(N4CCOCC4)c3Cl)[nH]c2n1", "note": "[Example 2, (S)-2-(3-Chloro-4-morpholin-4-yl-pyridin-2-ylmethanesulfinyl)-5-methoxy-3H-imidazo[4,5-b]pyridine]", "Inhibition of acid secretion (%)": ">50"}
{"smiles": "COc1ccc2nc([S+]([O-])Cc3nccc(N4CCOCC4)c3Cl)[nH]c2n1", "note": "(stereo not drawn) [Example 1, 2-(3Chloro-4-morpholin-4-yl-pyridin-2-ylmethanesulfinyl)-5-methoxy-3H-imidazo[4,5-b]pyridine]", "Inhibition of acid secretion (%)": ">50"}
{"smiles": "COc1ccc2nc([S@+]([O-])Cc3nccc(N4CCOCC4)c3Cl)[nH]c2n1", "note": "[Example 3, (R)-2-(3-Chloro-4-morpholin-4-yl-pyridin-2-ylmethanesulfinyl)-5-methoxy-3H-imidazo[4,5-]pyridine]", "Inhibition of acid secretion (%)": ">50"}
